Data taken from the supplement of paper PMC10307832.

Assays:
Assay in all cases: relative viability (nuclei count vs DMSO), 5 days (fraction); higher = more cells survive
Tipifarnib + OSI-027 = compound: Cn1cncc1[C@@](N)(c1ccc(Cl)cc1)c1ccc2c(c1)c(-c1cccc(Cl)c1)cc(=O)n2C [Tipifarnib] + COc1cccc2cc(-c3nc([C@H]4CC[C@H](C(=O)O)CC4)n4ncnc(N)c34)[nH]c12 [OSI-027] (partner 0.5 µM)
In short: (§1)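 Lung cancer cell lines were seeded in 1536-well plates and dosed by pin tool the next day, with either a single drug or a fixed anchor-drug dose combined with five library-drug doses (not always all listed) spaced in √10 steps. Five days later, one step fixed the cells and stained their nuclei (final 0.05% Triton X-100, 1% formaldehyde, 1 ug/ml Hoechst), and nuclei were counted on 4× images. Relative viability is the nuclei count in treated wells divided by the count in vehicle wells, and each value is the median of duplicate plates.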

Tipifarnib + Lapatinib = compound: Cn1cncc1[C@@](N)(c1ccc(Cl)cc1)c1ccc2c(c1)c(-c1cccc(Cl)c1)cc(=O)n2C [Tipifarnib] + CS(=O)(=O)CCNCc1ccc(-c2ccc3ncnc(Nc4ccc(OCc5cccc(F)c5)c(Cl)c4)c3c2)o1 [Lapatinib] (partner 2 µM)
In short: as §1

Tipifarnib + Linsitinib = compound: Cn1cncc1[C@@](N)(c1ccc(Cl)cc1)c1ccc2c(c1)c(-c1cccc(Cl)c1)cc(=O)n2C [Tipifarnib] + C[C@]1(O)C[C@@H](c2nc(-c3ccc4ccc(-c5ccccc5)nc4c3)c3c(N)nccn32)C1 [Linsitinib] (partner 1 µM)
In short: as §1

Tipifarnib + Alpelisib = compound: Cn1cncc1[C@@](N)(c1ccc(Cl)cc1)c1ccc2c(c1)c(-c1cccc(Cl)c1)cc(=O)n2C [Tipifarnib] + Cc1nc(NC(=O)N2CCC[C@H]2C(N)=O)sc1-c1ccnc(C(C)(C)C(F)(F)F)c1 [Alpelisib] (partner 2 µM)
In short: as §1

Cell Line	relative viability (Tipifarnib + OSI-027; first compound 0.01 µM)	relative viability (Tipifarnib + OSI-027; first compound 0.03162 µM)	relative viability (Tipifarnib + OSI-027; first compound 0.1 µM)	relative viability (Tipifarnib + OSI-027; first compound 0.3162 µM)	relative viability (Tipifarnib + OSI-027; first compound 1 µM)	relative viability (Tipifarnib + Lapatinib; first compound 0.01 µM)	relative viability (Tipifarnib + Lapatinib; first compound 0.03162 µM)	relative viability (Tipifarnib + Lapatinib; first compound 0.1 µM)	relative viability (Tipifarnib + Lapatinib; first compound 0.3162 µM)	relative viability (Tipifarnib + Lapatinib; first compound 1 µM)	relative viability (Tipifarnib + Linsitinib; first compound 0.01 µM)	relative viability (Tipifarnib + Linsitinib; first compound 0.03162 µM)	relative viability (Tipifarnib + Linsitinib; first compound 0.1 µM)	relative viability (Tipifarnib + Linsitinib; first compound 0.3162 µM)	relative viability (Tipifarnib + Linsitinib; first compound 1 µM)	relative viability (Tipifarnib + Alpelisib; first compound 0.01 µM)	relative viability (Tipifarnib + Alpelisib; first compound 0.03162 µM)	relative viability (Tipifarnib + Alpelisib; first compound 0.1 µM)	relative viability (Tipifarnib + Alpelisib; first compound 0.3162 µM)	relative viability (Tipifarnib + Alpelisib; first compound 1 µM)
NCI-H1651	0.65	0.729	0.673	0.558	0.456	0.931	0.799	0.919	0.85	0.426	1.18	1.06	0.964	0.892	0.961	1.32	1.01	1.03	0.837	0.811
NCI-H1666	0.73	0.737	0.585	0.566	0.602	0.666	0.61	0.591	0.474	0.388	0.719	0.704	0.623	0.549	0.573	1	0.725	0.851	0.717	0.538
NCI-H1734	0.581	0.444	0.463	0.316	0.365	1.18	0.995	0.682	0.618	0.431	0.875	0.85	0.709	0.694	0.48	0.714	0.598	0.592	0.501	0.418
NCI-H1755	0.75	0.603	0.677	0.622	0.452	1.03	0.988	0.981	0.906	0.507	0.995	0.957	0.928	0.913	0.897	0.916	0.848	0.868	0.804	0.808
NCI-H1792	0.9	0.76	0.548	0.32	0.357	0.942	0.941	0.782	0.574	0.298	0.436	0.453	0.257	0.207	0.233	0.699	0.643	0.345	0.293	0.281
NCI-H1793	0.254	0.326	0.204	0.215	0.216	0.882	0.691	0.742	0.381	0.52	0.983	0.577	0.737	0.751	0.576	0.811	0.691	0.565	0.453	0.396
NCI-H1915	0.445	0.357	0.399	0.325	0.288	0.927	0.67	0.56	0.416	0.282	0.902	0.695	0.631	0.542	0.583	0.817	0.624	0.544	0.48	0.457
NCI-H1944	0.419	0.324	0.307	0.247	0.263	0.854	0.622	0.599	0.444	0.342	1.3	1	1.09	0.644	0.737	0.805	0.742	0.648	0.54	0.572
